Patent publication US6495147B1 (LVMH Recherche, priority 1997, dated 2002)

What was measured:
[1] = system: normal human keratinocytes; assay: Stimulation of synthesis and secretion of PG and GAG by keratinocytes (radioactive tracer incorporation); type: cell-based; conditions: for GAG secreted / A, stimulating activity on the secretion of GAG: 48 h; for A, stimulating activity on the secretion of GAG: versus untreated control
Experimental: These tracers enable the amount of PG and GAG to be measured.
There are two families of GAG which differ in their sugar chains. One is based on a sequence of glucosamines and the other is based on a sequence of galactosamines. It is for this reason that two different radioactive tracers were used, namely ^3H-D-glucosamine and ^14C-D-galactosamine, which become incorporated in the osidic chains of PG and GAG during their synthesis.
The cells are incubated for 24 h at 37° C. in a humidity-saturated atmosphere containing 5% of CO2.
(§1) The cultures are then incubated for 48 h at 37° C. in a humidity-saturated atmosphere containing 5% of CO2.
The enzyme is then inactivated by heating for 10 min in boiling water, after which the mixture is brought back to room temperature. A selective precipitation of the GAG is effected with 40 μl of cetylpyridinium chloride (CPC at 100 mg/ml, Sigma) in the presence of 40 μl of a mixture of hyaluronic acid (Fluka), dermatan sulfate (Fluka) and chondroitin sulfate (Sigma), all at 2 mg/ml (amounting to the addition of a solution containing 6 mg/ml of non-radioactive GAG). These non-radioactive GAG are added to trigger the precipitation and entrain the radioactive GAG (which on their own would not be in a sufficient amount to precipitate) into the precipitate. The precipitate obtained is washed twice with 400 μl of a solution of CPC at 10 mg/ml, and then solubilized in 500 μl of methanol (Merck). The radioactivity is finally measured by liquid scintillation with 10 ml of scintillating liquid (Packard).
It should be noted when processing the results that the GAG whose synthesis has been measured have two origins. They originate both from the synthesized and secreted GAG and from the synthesized and secreted PG (which have undergone hydrolysis with pronase for the purposes of the assay).
In order to reduce the radioactivity to a unit amount of cellular material, the cellular proteins are assayed. After removal of the culture medium and two rinses with a phosphate buffer of pH 7.2 (PBS, Gibco), the cellular tapetum in the culture wells is dissolved in 30 μl of 0.1 M NaOH at 37° C. and the plates are agitated for 30 min at 37° C. 200 μl of bicinchoninic acid/Cu^++ sulfate reagent (Sigma kit) are added to each well. The plates are incubated for 30 min at 37° C. in the dark and the proteins which it is desired to assay reduce the cupric ions (Cu^++) of the copper sulfate to cuprous ions (Cu^+). The latter and the bicinchoninic acid form chromogenic complexes absorbing at 570 nm, which is the wavelength used to measure the optical density. In parallel, a calibration series is prepared under the same experimental conditions with 0 to 100 μg/well of bovine serum albumin (BSA, Sigma) in order to translate the optical densities (OD) obtained with the cellular proteins into Stg of BSA equivalent per well.
The amounts of GAG measured will be reduced to a unit amount of protein (expressed in jig of BSA equivalent).
The stimulating activity “A” on the secretion of GAG is calculated in the form of a percentage according to the following formula: [formula]

[2] = system: normal human keratinocytes; assay: Cytotoxicity / cell viability in keratinocyte cultures; type: cell-based; conditions: concentrations of 1.5 and 10 mM
Experimental: as §1

[3] = D-xylose 1 mM, tracer 3H-D-glucosamine
[4] = D-xylose 1 mM, tracer 14C-D-galactosamine
[5] = D-xylose 5 mM, tracer 3H-D-glucosamine
[6] = D-xylose 10 mM, tracer 3H-D-glucosamine
[7] = D-xylose 10 mM, tracer 14C-D-galactosamine

O=C[C@H](O)[C@@H](O)[C@H](O)CO [D-xylose]
GAG secreted [1, 3]: 2148 ± 160 dpm/μg protein | A, stimulating activity on the secretion of GAG [1, 3]: 55% | GAG secreted [1, 4]: 136 ± 12 dpm/μg protein | A, stimulating activity on the secretion of GAG [1, 4]: 34% | GAG secreted [1, 5]: 2661 ± 202 dpm/μg protein | A, stimulating activity on the secretion of GAG [1, 5]: 92% | A, stimulating activity on the secretion of GAG ([1]; D-xylose 5 mM, tracer 14C-D-galactosamine): 105% | GAG secreted [1, 6]: 2950 ± 262 dpm/μg protein | A, stimulating activity on the secretion of GAG [1, 6]: 113% | GAG secreted [1, 7]: 250 ± 28 dpm/μg protein | A, stimulating activity on the secretion of GAG [1, 7]: 145% | synthesis and extracellular secretion of PG and GAG by the keratinocytes of the human epidermis ([1]; irrespective of the radioactive tracer used): very strongly stimulates | cytotoxicity [2]: non-cytotoxic
